From paper PMC9770967, “Native holdup (nHU) to measure binding affinities from cell extracts” (Science Advances, 2022)

Legend:
Type in all cases: binding, human
[1] = tested on: DLG1_PDZ_2; assay: nHU-MS, DLG1_PDZ_2 bait, total Jurkat extracts (Exploris MS); conditions: Jurkat extract; for Difference log2 / Ratio DLG1_2/MBP: DLG1_PDZ_2 bait vs MBP; for BI: DLG1_PDZ_2 bait
Description: (§1) To further establish the repeatability and robustness of the nHU-MS assay, we repeated the experiments using a different mass spectrometer and six different PDZ domain baits taken from SCRIB (PDZ_1 and PDZ_2), discs large MAGUK scaffold protein 1 (DLG1, PDZ_1, and PDZ_2), Tax1 binding protein 3 (TAX1BP3), and SNX27 (fig. S3B and table S1). […] Of the studied baits, the PDZ domain of SNX27 turned out to be the most promiscuous with 103 statistically significant interaction partners (while 180 SNX27 binding partners were identified in total on the basis of the three independent nHU-MS experiments).
(§2) For saturating streptavidin resin with biotinylated peptides or biotin, 50 μl of streptavidin resin was mixed with biotin or peptide at 40 to 60 μM concentration in 6 to 6.5 resin volume for 60 min. To saturate streptavidin resin with biotinylated proteins, 50 μl of streptavidin resin (Streptavidin Sepharose High Performance, Cytiva) was mixed with biotinylated MBP or MBP-PDZ at 40 to 50 μM concentration in 20× resin volume for 60 min. After saturation, resins were washed a single time [10 resin volume, holdup buffer: 50 mM tris (pH 7.5), 300 mM NaCl, and 1 mM TCEP, 0.22-μm filtered] and were depleted with biotin (10 resin volume, 10 min, holdup buffer supplemented with 100 μM biotin). Last, resins were washed two times (10 resin volume, holdup buffer).
(§3) For single-point nHU experiments carried out at ~10 μM bait concentration, 50 μl of saturated streptavidin resin was mixed with 200 μl of cell lysate (2 mg/ml). Titration experiments were carried out by mixing control and bait-saturated resin and keeping the total resin volume constant; e.g., ~5 μM bait concentration can be achieved by mixing 25 μl of bait-saturated streptavidin resin with 25 μl of control resin and 200 μl of cell lysate (2 mg/ml). Control and bait-saturated resins were prepared in larger amounts, and a serial dilution was prepared with these presaturated resins to achieve different resin ratios.
(§4) Unless specified elswhere, the nHU mixture was incubated at 4°C for 2 hours. After the incubation ended, the resin was separated from the supernatant by a brief centrifugation (15 s, 2000 g). Then, half of the supernatant was removed by pipetting without any delay to avoid any resin contamination; e.g., 100 μl of supernatant is collected if 200 μl of cell lysate was used as analyte. Alternatively, the supernatant can be centrifuged an additional time to clarify it further, removing any possible resin contamination. In principle, the separation of the supernatant should be as fast as possible since any delay can perturb the equilibrium. […] Alternatively, the resin can be separated from the supernatant using filter plates (e.g., various products of Millipore, Burlington, MA) or spin columns (e.g., Pierce spin cups—cellulose acetate filter from Thermo Fisher Scientific, Waltham, MA) to achieve faster separation.
(§5) The nHU samples were precipitated with trichloroacetic acid (TCA) 20% overnight at 4°C and centrifuged at 14,000 rpm for 10 min at 4°C. The protein pellets were washed twice with 1 ml of cold acetone and air-dried. The protein extracts were solubilized in 8 M urea, reduced with 5 mM TCEP for 30 min, and alkylated with 10 mM iodoacetamide for 30 min in the dark. Double digestion was performed at 37°C with 500 ng of endoproteinase Lys-C (Wako, Richmond, USA) for 4 hours, followed by fourfold dilution and an overnight digestion with 500 ng of trypsin (Promega, Charbonnieres les Bains, France). Peptide mixtures were then desalted on a C18 spin-column and dried on a speed vacuum.
(§6) Samples were analyzed using an Ultimate 3000 nano-RSLC coupled in line via a nano-electrospray ionization source, with an LTQ-Orbitrap ELITE mass spectrometer (Thermo Fisher Scientific, San Jose, CA) or with the Orbitrap Exploris 480 mass spectrometer (Thermo Fisher Scientific, Bremen, Germany) equipped with a high field asymmetric ion mobility spectrometry (FAIMS) module. […]

[2] = tested on: SNX27_PDZ; assay: nHU-MS, SNX27_PDZ bait, total Jurkat extracts, series 2 (Exploris MS)
Description: as §1, §2, §3, §4, §5, §6

[3] = tested on: TX1BP3_PDZ; assay: nHU-MS, TX1BP3_PDZ (TAX1BP3) bait, total Jurkat extracts (Exploris MS); conditions: for BI / Difference log2 / Ratio TX1BP3/MBP: nHU-MS, total Jurkat extract; for BI: TX1BP3_PDZ bait vs MBP; for Difference log2: TX1BP3_PDZ vs MBP; for Ratio TX1BP3/MBP: TX1BP3_PDZ
Description: as §1, §2, §3, §4, §5, §6

[4] = tested on: DLG1_PDZ_1; assay: nHU-MS, DLG1_PDZ_1 bait, total Jurkat extracts (Exploris MS); conditions: for Ratio DLG1_1/MBP: DLG1_PDZ_1, total Jurkat extract; for BI: DLG1_PDZ_1 bait vs MBP; for BI / pKd / Difference log2: total Jurkat extract; for pKd: DLG1_PDZ_1 bait, not filtered for significance (pKdsign N/D); for Difference log2: DLG1_PDZ_1 vs MBP
Description: as §1, §2, §3, §4, §5, §6

[5] = tested on: SCRIB_PDZ_2; assay: nHU-MS, SCRIB_PDZ_2 bait, total Jurkat extracts (Exploris MS); conditions: nHU-MS; for Ratio SCRIB_2/MBP: SCRIB_PDZ_2, total Jurkat extract; for BI: SCRIB_PDZ_2 bait vs MBP; for BI / Difference log2: total Jurkat extract; for Difference log2: SCRIB_PDZ_2 vs MBP
Description: as §1, §2, §3, §4, §5, §6

[6] = tested on: SCRIB_PDZ_1; assay: nHU-MS, SCRIB_PDZ_1 bait, total Jurkat extracts (Exploris MS); conditions: for Ratio SCRIB_1/MBP: SCRIB_PDZ_1, total Jurkat extract; for BI: SCRIB_PDZ_1 bait vs MBP; for Difference log2: SCRIB_PDZ_1 vs MBP
Description: as §1, §2, §3, §4, §5, §6

Substance	Difference log2 [1]	Ratio DLG1_2/MBP [1]	BI [1]	BI ([2]; Jurkat, series 2, n = 3)	Difference log2 ([2]; Jurkat, series 2, n = 3)	Ratio SNX27/MBP ([2]; Jurkat, series 2, n = 3)	BI [3]	Difference log2 [3]	Ratio TX1BP3/MBP [3]	Ratio DLG1_1/MBP [4]	BI [4]	pKd [4]	Difference log2 [4]	Ratio SCRIB_2/MBP [5]	BI [5]	Difference log2 [5]	Ratio SCRIB_1/MBP ([6]; nHU-MS)	BI ([6]; nHU-MS, total Jurkat extract)	Difference log2 ([6]; nHU-MS, total Jurkat extract)	other results
PIGBOS1: Protein PIGBOS1 (MFRRLTFAQLLFATVLGIAGGVYIFQPVFEQYAKDQKELKEKMQLVQESEEKKS; UniProt A0A0B4J2F0 1-54, looked up)	0.04834	1.034	-0.03407	-0.08774	0.1213	1.088	-0.09136	0.1261	1.091	0.91	0.08999	3.996	-0.136	1.081	-0.08098	0.1123	1.118	-0.1177	0.1605	–
PPIAL4C: Peptidyl-prolyl cis-trans isomerase A-like 4C	0.05781	1.041	-0.04089	-0.1115	0.1526	1.112	-0.05401	0.07589	1.054	0.9698	0.03017	3.493	-0.0442	1.136	-0.1361	0.1841	0.9925	0.007486	-0.01084	pKd ([6]; nHU-MS, SCRIB_PDZ_1 bait, total Jurkat extract, not filtered for significance (pKdsign N/D)): 2.878
PPIAL4H: Peptidyl-prolyl cis-trans isomerase A-like 4H	0.01399	1.01	-0.009745	0.2686	-0.4513	0.7314	-0.05277	0.07419	1.053	0.8033	0.1967	4.3897	-0.3159	1.14	-0.1396	0.1885	1.007	-0.006606	0.009499	pKd ([2]; apparent, Jurkat, series 2, not filtered for significance, n = 3): 4.566
WDR48	–	–	–	–	–	–	–	–	–	–	–	–	–	–	–	–	–	–	–	pKapp (nHU-MS) ([2]; SNX27_PDZ&Jurkat (Exploris)): 4.78; pKapp (nHU-MS) ([3]; TX1BP3_PDZ&Jurkat (Exploris)): 4.78; pKapp (nHU-MS) ([6]; SCRIB_PDZ_1&Jurkat (Exploris)): 4.749
